Reference: patent publication US11230526B1, “Cylcoalkenyl derivatives useful as agonists of the GPR120 and/or GPR40 receptors” (Janssen Pharmaceutica NV, priority 2018, dated 2022)

Legend:
[1] = target: T1, human GPR40 (Homo sapiens, UniProt O14842); assay: GPR40 calcium flux assay, human GPR40; format: cell-based; conditions: HEK293 cells stably expressing GPR40; table does not say human or rat
T1 construct: expressed in transfected cells
Outline: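 Cells preincubated 1 h at 37° C. in HBSS, 20 mM HEPES, 0.1% BSA, then Fluo 8 calcium dye 30 min at 37° C. and 15 min at room temperature.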

[2] = target: T2, Human GPR120 short form (Homo sapiens, UniProt Q5NUL3); assay: Human GPR120 calcium flux assay, Procedure Calcium B (4200 cells/well); format: cell-based
T2 construct: expressed in transfected cells
T2 sequence (Q5NUL3 1-361): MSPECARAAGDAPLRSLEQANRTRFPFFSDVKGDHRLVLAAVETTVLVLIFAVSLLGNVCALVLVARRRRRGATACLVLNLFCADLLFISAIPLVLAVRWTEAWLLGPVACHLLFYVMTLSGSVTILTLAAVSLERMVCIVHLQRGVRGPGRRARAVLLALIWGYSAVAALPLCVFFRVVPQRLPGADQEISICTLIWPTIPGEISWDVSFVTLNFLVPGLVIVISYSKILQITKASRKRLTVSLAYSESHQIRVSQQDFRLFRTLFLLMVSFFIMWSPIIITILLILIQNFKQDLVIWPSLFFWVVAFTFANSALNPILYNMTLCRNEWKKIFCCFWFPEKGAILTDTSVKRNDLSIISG
Outline: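 HEK293 cells stably expressing human GPR120 (NM_001195755.1), 4200 cells/well, starved 1 h and loaded with Fluo-4 NW plus probenecid. Ligand-evoked calcium flux read on FLIPR for 300 s after a 10 s baseline. RFU = Fmax−Fmin; EC50 from four-parameter concentration-response fit.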

T1 sequence (O14842 whole entry): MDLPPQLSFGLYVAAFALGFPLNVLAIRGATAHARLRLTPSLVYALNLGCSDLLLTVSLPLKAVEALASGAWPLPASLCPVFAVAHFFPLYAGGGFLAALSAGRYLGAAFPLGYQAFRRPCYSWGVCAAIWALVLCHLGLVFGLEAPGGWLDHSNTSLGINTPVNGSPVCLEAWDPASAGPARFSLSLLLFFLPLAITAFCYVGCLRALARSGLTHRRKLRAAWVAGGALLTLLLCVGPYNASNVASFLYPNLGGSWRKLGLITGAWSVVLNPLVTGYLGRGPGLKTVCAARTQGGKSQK

SMILES	EC50 [1] [nM]	EC50 [2] [nM]
O=C(O)CCc1ccc(OCC2=C(C3CCCC3)CCC2)cc1 [Compound 395, 3-[4-[(2-cyclopentylcyclopenten-1-yl)methoxy]phenyl]Propanoic Acid]	188	255
O=C(O)CCc1ccc(OCC2=C(C3CCC3)CCC2)cc1 [Compound 397, 3-[4-[(2-cyclobutylcyclopenten-1-yl)methoxy]phenyl]Propanoic Acid]	418	592
O=C(O)CCc1ccc(OCC2=C(c3ccc(F)cc3)CC(F)(F)C2)cc1Cl [Compound 401, 3-[2-chloro-4-[[4,4-difluoro-2-(4-fluorophenyl)cyclopenten-1-yl]methoxy]phenyl]Propanoic Acid]	311	304
Cc1cc(OCC2=C(c3ccc(F)cc3)CC(F)(F)C2)c(F)cc1CCC(=O)O [Compound 402, 3-[4-[[4,4-difluoro-2-(4-fluorophenyl)cyclopenten-1-yl]methoxy]-5-fluoro-2-methyl-phenyl]Propanoic Acid]	1090	278
O=C(O)CCc1ccc(OCC2=C(C(=O)c3ccccc3)CCC2)cc1C(F)(F)F [Compound 403, 3-[4-[(2-benzoylcyclopenten-1-yl)methoxy]-2-(trifluoromethyl)phenyl]Propanoic Acid]	1140	1490
Cc1cccc(CC2=C(COc3ccc(CCC(=O)O)c(C(F)(F)F)c3)CCC2)c1 [Compound 405, 3-[4-[[2-(m-tolylmethyl)cyclopenten-1-yl]methoxy]-2-(trifluoromethyl)phenyl]Propanoic Acid]	205	1820
O=C(O)CCc1ccc(OCC2=C(C3CCC(F)(F)CC3)CCC2)cc1 [Compound 412, 3-[4-[[2-(4,4-difluorocyclohexyl)cyclopenten-1-yl]methoxy]phenyl]Propanoic Acid]	513	4650
Cc1c(CCC(=O)O)ccc(OCC2=C(C3CCC(F)(F)CC3)CCC2)c1C [Compound 413, 3-[4-[[2-(4,4-difluorocyclohexyl)cyclopenten-1-yl]methoxy]-2,3-dimethyl-phenyl]Propanoic Acid]	> 10000	1800
Cc1cc(OCC2=C(C3CCC(F)(F)CC3)CCC2)c(F)cc1CCC(=O)O [Compound 417, 3-[4-[[2-(4,4-difluorocyclohexyl)cyclopenten-1-yl]methoxy]-5-fluoro-2-methyl-phenyl]Propanoic Acid]	1010	> 5000
O=C(O)CCc1ccc(OCC2=C(C3CCOCC3)CCC2)cc1Cl [Compound 418, 3-[2-chloro-4-[(2-tetrahydropyran-4-ylcyclopenten-1-yl)methoxy]phenyl]Propanoic Acid]	171	> 5000
O=C(O)CCc1cc(F)c(OCC2=C(C3CCC(F)(F)CC3)CCC2)c(F)c1 [Compound 419, 3-[4-[[2-(4,4-difluorocyclohexyl)cyclopenten-1-yl]methoxy]-3,5-difluoro-phenyl]Propanoic Acid]	> 10000	3170
Cc1cc(OCC2=C(C3CCCC3)CCC2)c(F)cc1CCC(=O)O [Compound 424, 3-[4-[(2-cyclopentylcyclopenten-1-yl)methoxy]-5-fluoro-2-methyl-phenyl]Propanoic Acid]	248	245
O=C(O)CCc1ccc(OCC2=C(C3CCCC3)CCC2)c(F)c1 [Compound 425, 3-[4-[(2-cyclopentylcyclopenten-1-yl)methoxy]-3-fluoro-phenyl]Propanoic Acid]	3230	143
Cc1c(CCC(=O)O)ccc(OCC2=C(C3CCCC3)CCC2)c1F [Compound 431, 3-[4-[(2-cyclopentylcyclopenten-1-yl)methoxy]-3-fluoro-2-methyl-phenyl]Propanoic Acid]	> 10000	59
Cc1c(CCC(=O)O)ccc(OCC2=C(C3CCCC3)CCC2)c1C [Compound 432, 3-[4-[(2-cyclopentylcyclopenten-1-yl)methoxy]-2,3-dimethyl-phenyl]Propanoic Acid]	> 10000	44

The next molecules have a lower EC50 [1] than those just listed; values first:

EC50 [1] [nM]	EC50 [2] [nM]	SMILES
152	> 5000	Cc1cccc(CC2=C(COc3ccc(CCC(=O)O)c(Cl)c3)CCC2)c1 [Compound 406, 3-[2-chloro-4-[[2-(m-tolylmethyl)cyclopenten-1-yl]methoxy]phenyl]Propanoic Acid]
135	995	O=C(O)CCc1ccc(OCC2=C(C3CCC3)CCC2)cc1Cl [Compound 400, 3-[2-chloro-4-[(2-cyclobutylcyclopenten-1-yl)methoxy]phenyl]Propanoic Acid]
133	> 5000	O=C(O)CCc1ccc(OCC2=C(C3CCC(F)(F)CC3)CCC2)cc1Cl [Compound 411, 3-[2-chloro-4-[[2-(4,4-difluorocyclohexyl)cyclopenten-1-yl]methoxy]phenyl]Propanoic Acid]
132	> 5000	O=C(O)CCc1ccc(OCC2=C(C3CCOCC3)CCC2)cc1C(F)(F)F [Compound 415, 3-[4-[(2-tetrahydropyran-4-ylcyclopenten-1-yl)methoxy]-2-(trifluoromethyl)phenyl]Propanoic Acid]
129	1410	CC(C)CC1=C(COc2ccc(CCC(=O)O)c(Cl)c2)CCC1 [Compound 394, 3-[2-chloro-4-[(2-isobutylcyclopenten-1-yl)methoxy]phenyl]Propanoic Acid]
128	996	CC(C)c1cc(OCC2=C(C3CCCC3)CCC2)ccc1CCC(=O)O [Compound 410, 3-[4-[(2-cyclopentylcyclopenten-1-yl)methoxy]-2-isopropyl-phenyl]Propanoic Acid]
105	1910	O=C(O)CCc1ccc(OCC2=C(Cc3ccccc3F)CCC2)cc1C(F)(F)F [Compound 404, 3-[4-[[2-[(2-fluorophenyl)methyl]cyclopenten-1-yl]methoxy]-2-(trifluoromethyl)phenyl]Propanoic Acid]
94	> 5000	O=C(O)CCc1ccc(OCC2=C(C3CCC(F)(F)CC3)CCC2)cc1C(F)(F)F [Compound 416, 3-[4-[[2-(4,4-difluorocyclohexyl)cyclopenten-1-yl]methoxy]-2-(trifluoromethyl)phenyl]Propanoic Acid]
89	844	O=C(O)CCc1ccc(OCC2=C(C3(F)CCC3)CC(F)(F)C2)cc1C(F)(F)F [Compound 429, 3-[4-[[4,4-difluoro-2-(1-fluorocyclobutyl)cyclopenten-1-yl]methoxy]-2-(trifluoromethyl)phenyl]Propanoic Acid]
82	200	O=C(O)CCc1ccc(OCC2=C(C3CCCC3)CCC2)cc1F [Compound 426, 3-[4-[(2-cyclopentylcyclopenten-1-yl)methoxy]-2-fluoro-phenyl]Propanoic Acid]
61	272	CCc1cc(OCC2=C(C3CCCC3)CCC2)ccc1CCC(=O)O [Compound 423, 3-[4-[(2-cyclopentylcyclopenten-1-yl)methoxy]-2-ethyl-phenyl]Propanoic Acid]
48	177	Cc1cc(OCC2=C(C3CCCC3)CCC2)ccc1CCC(=O)O [Compound 422, 3-[4-[(2-cyclopentylcyclopenten-1-yl)methoxy]-2-methyl-phenyl]Propanoic Acid]
48	256	O=C(O)CCc1ccc(OCC2=C(C3CCCC3)CCC2)cc1Cl [Compound 428, 3-[2-chloro-4-[(2-cyclopentylcyclopenten-1-yl)methoxy]phenyl]Propanoic Acid]
46	335	O=C(O)CCc1ccc(OCC2=C(C3CCC3)CC(F)(F)C2)cc1Cl [Compound 430, 3-[2-chloro-4-[(2-cyclobutyl-4,4-difluoro-cyclopenten-1-yl)methoxy]phenyl]Propanoic Acid]
30	150	O=C(O)CCc1ccc(OCC2=C(C3CCCC3)CC(F)(F)C2)cc1C(F)(F)F [Compound 407, 3-[4-[(2-cyclopentyl-4,4-difluoro-cyclopenten-1-yl)methoxy]-2-(trifluoromethyl)phenyl]Propanoic Acid]
25	86	O=C(O)CCc1ccc(OCC2=C(C3CCCC3)CC(F)(F)C2)cc1Cl [Compound 409, 3-[2-chloro-4-[(2-cyclopentyl-4,4-difluoro-cyclopenten-1-yl)methoxy]phenyl]Propanoic Acid]
25	222	O=C(O)CCc1ccc(OCC2=C(C3CCCC3)CCC2)cc1Br [Compound 421, 3-[2-bromo-4-[(2-cyclopentylcyclopenten-1-yl)methoxy]phenyl]Propanoic Acid]
15	671	O=C(O)CCc1ccc(OCC2=C(C3CCC3)CCC2)cc1C(F)(F)F [Compound 399, 3-[4-[(2-cyclobutylcyclopenten-1-yl)methoxy]-2-(trifluoromethyl)phenyl]Propanoic Acid]
8	556	O=C(O)CCc1ccc(OCC2=C(C3CCCC3)CCC2)cc1C(F)(F)F [Compound 398, 3-[4-[(2-cyclopentylcyclopenten-1-yl)methoxy]-2-(trifluoromethyl)phenyl]Propanoic Acid]
